Experimental data published in patent US12077503B2, “Substituted cyclic amides and their use as herbicides” (FMC CORPORATION, priority 2015, dated 2024).

Assays:
Assay type in all cases: in vivo
[1] = tested on: ragweed (common ragweed, Ambrosia elatior); test: Test A preemergence; settings: Ambrosia artemisiifolia, pre-emergence, 240 h, preemergence, 0 to 100 scale where 0 is no effect and 100 is complete control, read-out: Ragweed plant response rating; for pest or weed control at 125 g/ha: 125 g ai/ha, visual injury rating, approximately 10 d; for pest or weed control at 500 g/ha: 500 g ai/ha
Method in brief: (§1)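 In a loam soil and sand blend, planted seeds got a preemergence directed soil spray, and young plants at the one- to two-leaf stage, 2–10 cm high, got a postemergence application; ~10 d greenhouse hold; injury rated visually, 0 = none, 100 = complete control.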

[2] = tested on: ryegrass, Italian (Italian ryegrass, Lolium multiflorum); test: Test A preemergence; settings: Lolium multiflorum, pre-emergence, 240 h, preemergence, 0 to 100 scale where 0 is no effect and 100 is complete control, read-out: Ryegrass, Italian plant response rating; for pest or weed control at 125 g/ha: 125 g ai/ha, visual injury rating, approximately 10 d; for pest or weed control at 500 g/ha: 500 g ai/ha
Method in brief: as §1

[3] = tested on: giant foxtail (Setaria faberii); test: Test A preemergence; settings: Setaria faberi, pre-emergence, 240 h, preemergence, 0 to 100 scale where 0 is no effect and 100 is complete control, read-out: Foxtail, Giant plant response rating; for pest or weed control at 125 g/ha: 125 g ai/ha, visual injury rating, approximately 10 d; for pest or weed control at 500 g/ha: 500 g ai/ha
Method in brief: as §1

[4] = tested on: barnyardgrass (Echinochloa crus-galli); test: Test A preemergence; settings: Echinochloa crus-galli, pre-emergence, 240 h, preemergence, 0 to 100 scale where 0 is no effect and 100 is complete control, read-out: Barnyardgrass plant response rating; for pest or weed control at 125 g/ha: 125 g ai/ha, visual injury rating, approximately 10 d; for pest or weed control at 500 g/ha: 500 g ai/ha
Method in brief: as §1

Kochia (Kochia scoparia) [5] = test: Test A preemergence; settings: Bassia scoparia, pre-emergence, 240 h, preemergence, 0 to 100 scale where 0 is no effect and 100 is complete control, read-out: Kochia plant response rating; for pest or weed control at 125 g/ha: 125 g ai/ha, visual injury rating, approximately 10 d; for pest or weed control at 500 g/ha: 500 g ai/ha
Method in brief: as §1

[6] = tested on: ragweed (common ragweed, Ambrosia elatior); test: Test A postemergence; settings: Ambrosia artemisiifolia, post-emergence, 240 h; for pest or weed control at 125 g/ha: 125 g ai/ha, postemergence, visual injury vs untreated controls after approx. 10 d, 0 = no effect, 100 = complete control, read-out: Ragweed plant response rating (0 to 100 scale); for pest or weed control at 500 g/ha: Postemergence, 500 g ai/ha, visual injury, 0 to 100 scale (0 no effect, 100 complete control), approx. 10 d, read-out: Plant response rating, Ragweed
Method in brief: as §1

[7] = tested on: ryegrass, Italian (Italian ryegrass, Lolium multiflorum); test: Test A postemergence; settings: Lolium multiflorum, post-emergence, 240 h; for pest or weed control at 125 g/ha: 125 g ai/ha, postemergence, visual injury vs untreated controls after approx. 10 d, 0 = no effect, 100 = complete control, read-out: Ryegrass, Italian plant response rating (0 to 100 scale); for pest or weed control at 500 g/ha: Postemergence, 500 g ai/ha, visual injury, 0 to 100 scale (0 no effect, 100 complete control), approx. 10 d, read-out: Plant response rating, Ryegrass, Italian
Method in brief: as §1

[8] = tested on: Galium (catchweed bedstraw, Galium aparine); test: Test A postemergence; settings: Galium, post-emergence, 240 h; for pest or weed control at 125 g/ha: 125 g ai/ha, postemergence, visual injury vs untreated controls after approx. 10 d, 0 = no effect, 100 = complete control, read-out: Galium plant response rating (0 to 100 scale); for pest or weed control at 500 g/ha: Postemergence, 500 g ai/ha, visual injury, 0 to 100 scale (0 no effect, 100 complete control), approx. 10 d, read-out: Plant response rating, Galium
Method in brief: as §1

[9] = tested on: giant foxtail (Setaria faberii); test: Test A postemergence; settings: Setaria faberi, post-emergence, 240 h; for pest or weed control at 125 g/ha: 125 g ai/ha, postemergence, visual injury vs untreated controls after approx. 10 d, 0 = no effect, 100 = complete control, read-out: Foxtail, Giant plant response rating (0 to 100 scale); for pest or weed control at 500 g/ha: Postemergence, 500 g ai/ha, visual injury, 0 to 100 scale (0 no effect, 100 complete control), approx. 10 d, read-out: Plant response rating, Foxtail, Giant
Method in brief: as §1

[10] = tested on: barnyardgrass (Echinochloa crus-galli); test: Test A postemergence; settings: Echinochloa crus-galli, post-emergence, 240 h; for pest or weed control at 125 g/ha: 125 g ai/ha, postemergence, visual injury vs untreated controls after approx. 10 d, 0 = no effect, 100 = complete control, read-out: Barnyardgrass plant response rating (0 to 100 scale); for pest or weed control at 500 g/ha: Postemergence, 500 g ai/ha, visual injury, 0 to 100 scale (0 no effect, 100 complete control), approx. 10 d, read-out: Plant response rating, Barnyardgrass
Method in brief: as §1

Kochia (Kochia scoparia) [11] = test: Test A postemergence; settings: Bassia scoparia, post-emergence, 240 h; for pest or weed control at 125 g/ha: 125 g ai/ha, postemergence, visual injury vs untreated controls after approx. 10 d, 0 = no effect, 100 = complete control, read-out: Kochia plant response rating (0 to 100 scale); for pest or weed control at 500 g/ha: Postemergence, 500 g ai/ha, visual injury, 0 to 100 scale (0 no effect, 100 complete control), approx. 10 d, read-out: Plant response rating, Kochia
Method in brief: as §1

corn (Zea mays) = test: Test A postemergence; settings: Zea mays, post-emergence, 240 h; for plant injury at 125 g/ha: 125 g ai/ha, postemergence, visual injury vs untreated controls after approx. 10 d, 0 = no effect, 100 = complete control, read-out: Corn plant response rating (0 to 100 scale); for Corn plant response rating (crop injury, 0 = no effect, 100 = complete kill) at 500 g/ha: Postemergence, 500 g ai/ha, visual injury, 0 to 100 scale (0 no effect, 100 complete control), approx. 10 d
Method in brief: as §1

[12] = tested on: wheat (Triticum aestivum); test: Test A postemergence; settings: Triticum aestivum, post-emergence, 240 h; for plant injury at 125 g/ha: 125 g ai/ha, postemergence, visual injury vs untreated controls after approx. 10 d, 0 = no effect, 100 = complete control, read-out: Wheat plant response rating (0 to 100 scale); for plant injury at 500 g/ha: Postemergence, 500 g ai/ha, visual injury, 0 to 100 scale (0 no effect, 100 complete control), approx. 10 d, read-out: Plant response rating, Wheat
Method in brief: as §1

[13] = tested on: pigweed (Amaranthus retroflexus); test: Test A postemergence; settings: Amaranthus retroflexus, post-emergence, 240 h; for pest or weed control at 125 g/ha: 125 g ai/ha, postemergence, visual injury vs untreated controls after approx. 10 d, 0 = no effect, 100 = complete control, read-out: Pigweed plant response rating (0 to 100 scale); for pest or weed control at 500 g/ha: Postemergence, 500 g ai/ha, visual injury, 0 to 100 scale (0 no effect, 100 complete control), approx. 10 d, read-out: Plant response rating, Pigweed
Method in brief: as §1

[14] = tested on: blackgrass (Alopecurus myosuroides); test: Test A postemergence; settings: Alopecurus myosuroides, post-emergence, 240 h; for pest or weed control at 125 g/ha: 125 g ai/ha, postemergence, visual injury vs untreated controls after approx. 10 d, 0 = no effect, 100 = complete control, read-out: Blackgrass plant response rating (0 to 100 scale); for pest or weed control at 500 g/ha: Postemergence, 500 g ai/ha, visual injury, 0 to 100 scale (0 no effect, 100 complete control), approx. 10 d, read-out: Plant response rating, Blackgrass
Method in brief: as §1

Compound | pest or weed control at 125 g/ha [1] | pest or weed control at 500 g/ha [1] | pest or weed control at 125 g/ha [2] | pest or weed control at 500 g/ha [2] | pest or weed control at 125 g/ha [3] | pest or weed control at 500 g/ha [3] | pest or weed control at 125 g/ha [4] | pest or weed control at 500 g/ha [4] | pest or weed control at 500 g/ha (Kochia (Kochia scoparia) [5]) | pest or weed control at 125 g/ha [6] | pest or weed control at 500 g/ha [6] | pest or weed control at 125 g/ha [7] | pest or weed control at 500 g/ha [7] | pest or weed control at 125 g/ha [8] | pest or weed control at 500 g/ha [8] | pest or weed control at 125 g/ha [9] | pest or weed control at 500 g/ha [9] | pest or weed control at 125 g/ha [10] | pest or weed control at 500 g/ha [10] | pest or weed control at 125 g/ha (Kochia (Kochia scoparia) [11]) | further results
Cc1ccc([C@H]2CNC(=O)[C@@H]2C(=O)Nc2c(F)cccc2F)cc1C [Compound 1247] | 0% | 0% | 0% | 20% | 20% | 80% | 70% | 90% | 30% | 0% | 0% | 0% | 0% | 0% | 20% | 0% | 30% | 40% | 70% | 0% | pest or weed control at 125 g/ha (Kochia (Kochia scoparia) [5]): 0%; pest or weed control at 500 g/ha (Kochia (Kochia scoparia) [11]): 0%; plant injury at 125 g/ha (corn (Zea mays)): 0%; Corn plant response rating (crop injury, 0 = no effect, 100 = complete kill) at 500 g/ha (corn (Zea mays)): 0%; plant injury at 125 g/ha [12]: 0%; plant injury at 500 g/ha [12]: 0%; pest or weed control at 125 g/ha [13]: 0%; pest or weed control at 500 g/ha [13]: 0%; pest or weed control at 125 g/ha [14]: 0%; pest or weed control at 500 g/ha [14]: 0%
CSc1ccccc1NC(=O)[C@H]1C(=O)N(C)C[C@@H]1c1cccc(C(F)(F)F)c1 [Compound 1249] | 30% | 70% | 30% | 100% | 100% | 100% | 100% | 100% | 90% | 0% | 60% | 30% | 70% | 50% | 50% | 80% | 80% | 100% | 100% | 40% | pest or weed control at 500 g/ha (Kochia (Kochia scoparia) [11]): 70%; plant injury at 125 g/ha (corn (Zea mays)): 70%; Corn plant response rating (crop injury, 0 = no effect, 100 = complete kill) at 500 g/ha (corn (Zea mays)): 90%; plant injury at 125 g/ha [12]: 50%; plant injury at 500 g/ha [12]: 70%; pest or weed control at 125 g/ha [13]: 30%; pest or weed control at 500 g/ha [13]: 80%; pest or weed control at 125 g/ha [14]: 40%; pest or weed control at 500 g/ha [14]: 50%
CSc1ccccc1NC(=O)[C@H]1C(=O)N(C)C[C@@H]1c1ccc2c(c1)OC(F)(F)O2 [Compound 1251] | 70% | 80% | 50% | 60% | 100% | 100% | 100% | 100% | 90% | 0% | 50% | 20% | 40% | 50% | 50% | 70% | 80% | 80% | 100% | 50% | pest or weed control at 125 g/ha (Kochia (Kochia scoparia) [5]): 80%; pest or weed control at 500 g/ha (Kochia (Kochia scoparia) [11]): 70%; plant injury at 125 g/ha (corn (Zea mays)): 20%; Corn plant response rating (crop injury, 0 = no effect, 100 = complete kill) at 500 g/ha (corn (Zea mays)): 80%; plant injury at 125 g/ha [12]: 30%; plant injury at 500 g/ha [12]: 60%; pest or weed control at 125 g/ha [13]: 70%; pest or weed control at 500 g/ha [13]: 80%; pest or weed control at 125 g/ha [14]: 0%; pest or weed control at 500 g/ha [14]: 40%
